Data as given in patent publication US20260085066A1, “LEUCINE RICH REPEAT KINASE 2 (LRRK2) DEGRADING COMPOUNDS AND ASSOCIATED METHODS OF USE” (Arvinas Operations, Inc., priority 2022, published 2026).

target: T1, WT LRRK2 (Homo sapiens, UniProt Q5S007); experiment: LRRK2 degradation HiBit assay in HEK293 cells (Nano-Glo Dual-Luciferase); assay type: cell-based; conditions: HiBit-tagged LRRK2 in HEK293 cells, 24 hours compound treatment
T1 construct: endogenous in cells; host or cells: HEK293 cells with HiBit knocked into the endogenous LRRK2 gene, stably expressing firefly luciferase
T1 sequence (Q5S007 whole entry): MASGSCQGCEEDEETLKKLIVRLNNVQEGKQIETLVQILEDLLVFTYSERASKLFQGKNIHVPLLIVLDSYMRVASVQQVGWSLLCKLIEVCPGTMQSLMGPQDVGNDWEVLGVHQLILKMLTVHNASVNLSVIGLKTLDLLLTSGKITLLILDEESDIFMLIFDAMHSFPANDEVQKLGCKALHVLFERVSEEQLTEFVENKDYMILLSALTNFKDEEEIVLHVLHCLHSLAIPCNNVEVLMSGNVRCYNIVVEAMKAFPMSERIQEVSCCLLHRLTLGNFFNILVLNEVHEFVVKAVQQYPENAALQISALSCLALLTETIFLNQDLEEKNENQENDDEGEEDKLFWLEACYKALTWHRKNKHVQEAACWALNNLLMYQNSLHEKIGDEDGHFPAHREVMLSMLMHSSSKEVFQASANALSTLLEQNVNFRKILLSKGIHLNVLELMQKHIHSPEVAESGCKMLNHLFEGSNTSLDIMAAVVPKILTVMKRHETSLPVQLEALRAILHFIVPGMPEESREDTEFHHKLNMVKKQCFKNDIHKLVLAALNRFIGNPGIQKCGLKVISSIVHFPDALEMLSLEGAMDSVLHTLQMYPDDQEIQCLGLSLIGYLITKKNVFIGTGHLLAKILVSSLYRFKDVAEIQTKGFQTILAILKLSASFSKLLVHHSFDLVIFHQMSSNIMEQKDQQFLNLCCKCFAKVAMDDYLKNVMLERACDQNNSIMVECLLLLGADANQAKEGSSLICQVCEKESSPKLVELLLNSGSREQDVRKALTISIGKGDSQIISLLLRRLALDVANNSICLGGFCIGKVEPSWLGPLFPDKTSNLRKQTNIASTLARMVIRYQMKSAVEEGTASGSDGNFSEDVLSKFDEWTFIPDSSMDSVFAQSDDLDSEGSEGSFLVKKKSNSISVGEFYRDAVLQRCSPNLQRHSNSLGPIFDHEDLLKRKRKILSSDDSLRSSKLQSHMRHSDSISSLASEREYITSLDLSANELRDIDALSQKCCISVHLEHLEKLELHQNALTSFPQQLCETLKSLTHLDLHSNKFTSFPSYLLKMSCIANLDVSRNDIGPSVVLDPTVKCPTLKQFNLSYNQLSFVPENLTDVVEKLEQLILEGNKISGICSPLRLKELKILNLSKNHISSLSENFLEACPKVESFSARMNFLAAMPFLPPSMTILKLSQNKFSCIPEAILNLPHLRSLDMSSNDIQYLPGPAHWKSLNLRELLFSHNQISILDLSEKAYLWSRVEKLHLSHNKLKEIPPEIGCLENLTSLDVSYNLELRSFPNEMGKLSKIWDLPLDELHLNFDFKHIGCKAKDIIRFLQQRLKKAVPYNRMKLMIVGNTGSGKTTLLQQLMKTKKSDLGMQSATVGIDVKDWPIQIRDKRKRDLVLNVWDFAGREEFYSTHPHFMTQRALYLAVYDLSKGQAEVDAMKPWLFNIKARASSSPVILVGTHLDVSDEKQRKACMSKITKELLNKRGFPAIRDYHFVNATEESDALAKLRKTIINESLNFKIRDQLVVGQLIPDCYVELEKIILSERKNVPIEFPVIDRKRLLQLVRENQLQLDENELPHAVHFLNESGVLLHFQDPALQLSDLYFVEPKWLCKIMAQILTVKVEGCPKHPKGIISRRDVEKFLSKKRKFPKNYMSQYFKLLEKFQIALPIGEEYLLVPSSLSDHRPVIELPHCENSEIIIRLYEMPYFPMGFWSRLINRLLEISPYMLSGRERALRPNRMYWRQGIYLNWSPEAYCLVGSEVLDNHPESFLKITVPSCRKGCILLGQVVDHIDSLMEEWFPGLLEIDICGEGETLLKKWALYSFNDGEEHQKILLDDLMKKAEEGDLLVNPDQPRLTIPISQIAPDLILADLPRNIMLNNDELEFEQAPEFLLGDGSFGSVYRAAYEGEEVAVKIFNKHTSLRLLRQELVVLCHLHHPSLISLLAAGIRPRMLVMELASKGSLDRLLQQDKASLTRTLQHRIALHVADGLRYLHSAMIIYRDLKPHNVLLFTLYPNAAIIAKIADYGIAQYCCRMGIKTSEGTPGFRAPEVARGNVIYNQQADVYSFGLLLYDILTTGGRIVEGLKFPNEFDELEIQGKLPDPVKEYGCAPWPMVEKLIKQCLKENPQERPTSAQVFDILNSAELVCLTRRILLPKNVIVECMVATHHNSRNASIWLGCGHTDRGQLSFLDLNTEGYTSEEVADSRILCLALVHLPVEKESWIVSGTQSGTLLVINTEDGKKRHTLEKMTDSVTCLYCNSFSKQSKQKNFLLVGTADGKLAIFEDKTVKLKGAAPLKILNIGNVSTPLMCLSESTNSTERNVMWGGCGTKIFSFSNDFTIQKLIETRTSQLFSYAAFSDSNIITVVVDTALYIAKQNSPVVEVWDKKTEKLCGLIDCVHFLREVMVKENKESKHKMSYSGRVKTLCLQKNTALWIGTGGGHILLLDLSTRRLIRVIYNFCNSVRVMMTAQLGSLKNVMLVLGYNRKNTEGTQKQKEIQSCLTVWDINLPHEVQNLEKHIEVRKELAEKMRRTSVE

Row | SMILES | Dmax [%]
1 | CC1(Oc2ccc3[nH]nc(-c4cc(N5CCC(C[C@H]6CC[C@@H](OC7CCN(c8ccc9c(c8F)CN(C8CCC(=O)NC8=O)C9=O)CC7)CC6)CC5)ncn4)c3c2)CC1 (some centres unmarked) [Example 22, 3-[4-fluoro-5-[4-[4-[[1-[6-[5-(1-methylcyclopropoxy)-1H-indazol-3-yl]pyrimidin-4-yl]-4-piperidyl]methyl]cyclohexoxy]-1-piperidyl]-1-oxo-isoindolin-2-yl]piperidine-2,6-dione] | ≥ 70
2 | CC1(Oc2ccc3[nH]nc(-c4cc(N5CCC(O[C@@H]6CCN(CC7CCN(c8ccc9c(c8F)CN(C8CCC(=O)NC8=O)C9=O)CC7)C(C)(C)C6)CC5)ncn4)c3c2)CC1 (some centres unmarked) [Example 11] | 50 to 70
3 | CC1(Cc2ccc3[nH]nc(-c4cc(N5CCC(CN6CCN(CC7CCN(c8ccc9c(c8F)CN(C8CCC(=O)NC8=O)C9=O)CC7)C(C)(C)C6)CC5)ncn4)c3c2)CC1 (centres unmarked) [Example 26] | 50 to 70
4 | CC1(Oc2ccc3[nH]nc(-c4cc(N5CCC(O[C@H]6CC[C@@H](CC7CCN(c8ccc9c(c8F)CN(C8CCC(=O)NC8=O)C9=O)CC7)CC6)CC5)ncn4)c3c2)CC1 (some centres unmarked) [Example 27] | 50 to 70
5 | CC1(Oc2ccc3[nH]nc(-c4cc(N5CCN(C[C@H]6CC[C@H](OC7CCN(c8ccc9c(c8)CN(C8CCC(=O)NC8=O)C9=O)CC7)CC6)CC5)ncn4)c3c2)CC1 (some centres unmarked) [Example 14, 3-[5-[4-[4-[[4-[6-[5-(1-methylcyclopropoxy)-1H-indazol-3-yl]pyrimidin-4-yl]piperazin-1-yl]methyl]cyclohexoxy]-1-piperidyl]-1-oxo-isoindolin-2-yl]piperidine-2,6-dione] | 50 to 70
6 | CC1(Cc2ccc3[nH]nc(-c4cc(N5CCC(CN6CCN(CC7CCN(c8ccc9c(c8F)CN(C8CCC(=O)NC8=O)C9=O)CC7)CC6(C)C)CC5)ncn4)c3c2)CC1 (centres unmarked) [Example 25] | < 50
7 | Cc1cc(N2CCC(O[C@H]3CC[C@H](CN4CCN(c5cc(-c6n[nH]c7ccc(OC8(C)CC8)cc67)ncn5)CC4)CC3)CC2)c(F)c2c1C(=O)N(C1CCC(=O)NC1=O)C2 (some centres unmarked) [Example 18, 3-(4-fluoro-7-methyl-5-(4-(((1r,4r)-4-((4-(6-(5-(1-methylcyclopropoxy)-1H-indazol-3-yl)pyrimidin-4-yl)piperazin-1-yl)methyl)cyclohexyl)oxy)piperidin-1-yl)-1-oxoisoindolin-2-yl)piperidine-2,6-dione] | ≥ 70
8 | Cc1cc(N2CCC(O[C@H]3CC[C@@H](CN4CCN(c5cc(-c6n[nH]c7ccc(OC8(C)CC8)cc67)ncn5)CC4)CC3)CC2)c(F)c2c1C(=O)N(C1CCC(=O)NC1=O)C2 (some centres unmarked) [Example 20, 3-(4-fluoro-7-methyl-5-(4-(((1s,4s)-4-((4-(6-(5-(1-methylcyclopropoxy)-1H-indazol-3-yl)pyrimidin-4-yl)piperazin-1-yl)methyl)cyclohexyl)oxy)piperidin-1-yl)-1-oxoisoindolin-2-yl)piperidine-2,6-dione] | < 50
9 | Cc1cc(N2CCC(CN3CCN(CC4CCN(c5cc(-c6n[nH]c7ccc(OC8(C)CC8)cc67)ncn5)CC4)C(C)(C)C3)CC2)c(F)c2c1C(=O)N(C1CCC(=O)NC1=O)C2 (centres unmarked) [Example 19] | 50 to 70
10 | COc1c(N2CCC(O[C@H]3CC[C@H](CN4CCN(c5cc(-c6[nH]nc7ccc(CC8(C)CC8)cc67)ncn5)CC4)CC3)CC2)ccc2c1CN(C1CCC(=O)NC1=O)C2=O (some centres unmarked) [Example 28] | 50 to 70
11 | COc1c(N2CCC(O[C@H]3C[C@H](N4CCC5(CC4)CN(c4cc(-c6[nH]nc7ccc(OC8(C)CC8)cc67)ncn4)C5)C3)CC2)ccc2c1CN(C1CCC(=O)NC1=O)C2=O (some centres unmarked) [Example 4, 3-[4-methoxy-5-[4-[3-[2-[6-[5-(1-methylcyclopropoxy)-2H-indazol-3-yl]pyrimidin-4-yl]-2,7-diazaspiro[3.5]nonan-7-yl]cyclobutoxy]-1-piperidyl]-1-oxo-isoindolin-2-yl]piperidine-2,6-dione] | 50 to 70
12 | CC1(Oc2ccc3[nH]nc(-c4cc(N5CCC(C[C@H]6CC[C@H](OC7CCN(c8ccc9c(c8F)CN(C8CCC(=O)NC8=O)C9=O)CC7)CC6)CC5)ncn4)c3c2)CC1 (some centres unmarked) [Example 23] | 50 to 70
13 | CC1(Oc2ccc3[nH]nc(-c4cc(N5CCC(O[C@H]6CC[C@H](CC7CCN(c8ccc9c(c8F)CN(C8CCC(=O)NC8=O)C9=O)CC7)CC6)CC5)ncn4)c3c2)CC1 (some centres unmarked) [Example 29] | ≥ 70
14 | CC1(Oc2ccc3[nH]nc(-c4cc(N5CCO[C@@H](CN6CCN(CC7CCN(c8ccc9c(c8F)CN(C8CCC(=O)NC8=O)C9=O)CC7)CC6(C)C)C5)cnn4)c3c2)CC1 (some centres unmarked) [Example 16] | 50 to 70

Further lines, results first:

Row | Dmax [%] | SMILES
15 | 50 to 70 | CC1(Oc2ccc3[nH]nc(-c4cc(N5CCN(C[C@H]6CN(CCC7CCN(c8ccc9c(c8F)CN(C8CCC(=O)NC8=O)C9=O)CC7)CCO6)CC5)ncn4)c3c2)CC1 (some centres unmarked) [Example 17]
16 | 50 to 70 | CC1(Oc2ccc3[nH]nc(-c4cc(N5CCO[C@@H](CN6CCN(CC7CCN(c8ccc9c(c8F)CN(C8CCC(=O)NC8=O)C9=O)CC7)CC6)C5)ncn4)c3c2)CC1 (some centres unmarked) [Example 2]
17 | 50 to 70 | CC1(Cc2ccc3[nH]nc(-c4cc(N5CCC(CN6CCN(CC7CCN(c8ccc9c(c8F)CN(C8CCC(=O)NC8=O)C9=O)CC7)CC6)CC5)ncn4)c3c2)CC1 (centres unmarked) [Example 21]
18 | 50 to 70 | CC1(Oc2ccc3[nH]nc(-c4cc(N5CCN(C[C@@H]6CN(CCC7CCN(c8ccc9c(c8F)CN(C8CCC(=O)NC8=O)C9=O)CC7)CCO6)CC5)ncn4)c3c2)CC1 (some centres unmarked) [Example 5]
19 | 50 to 70 | CC1(Oc2ccc3[nH]nc(-c4cc(N5CCN(CCN6CCN(CC7CCN(c8ccc9c(c8F)CN(C8CCC(=O)NC8=O)C9=O)CC7)CC6)CC5)ncn4)c3c2)CC1 (centres unmarked) [Example 8]
20 | 50 to 70 | CC1(Oc2ccc3[nH]nc(-c4cc(N5CCN(C[C@H]6CC[C@H](CN7CCN(c8ccc9c(c8F)CN(C8CCC(=O)NC8=O)C9=O)CC7)OC6)CC5)ncn4)c3c2)CC1 (some centres unmarked) [Example 10]
21 | 50 to 70 | CC1(Oc2ccc3[nH]nc(-c4cc(N5CCN(CC(F)(F)C6CCN(CC7CCN(c8ccc9c(c8F)CN(C8CCC(=O)NC8=O)C9=O)CC7)CC6)CC5)ncn4)c3c2)CC1 (centres unmarked) [Example 15]
22 | 50 to 70 | CC1(Oc2ccc3[nH]nc(-c4cc(N5CCO[C@H](CN6CCN(CC7CCN(c8ccc9c(c8F)CN(C8CCC(=O)NC8=O)C9=O)CC7)CC6(C)C)C5)ncn4)c3c2)CC1 (some centres unmarked) [Example 3]
23 | 50 to 70 | CC1(Oc2ccc3[nH]nc(-c4cc(N5CCN(C[C@@H]6CN(CC7CCN(c8ccc9c(c8F)CN(C8CCC(=O)NC8=O)C9=O)CC7)CCO6)CC5)ncn4)c3c2)CC1 (some centres unmarked) [Example 13]
24 | 50 to 70 | CC1(Oc2ccc3[nH]nc(-c4cc(N5CCC(CN6CC[C@@H](CN7CCN(c8ccc9c(c8F)CN(C8CCC(=O)NC8=O)C9=O)CC7)[C@@H](F)C6)CC5)ncn4)c3c2)CC1 (some centres unmarked) [Example 7]
25 | < 50 | CC1(Cc2ccc3[nH]nc(-c4cc(N5CCC(OC6CCN(CC7CCN(c8ccc9c(c8F)CN(C8CCC(=O)NC8=O)C9=O)CC7)CC6)CC5)ncn4)c3c2)CC1 (centres unmarked) [Example 24]
26 | 50 to 70 | CC1(Oc2ccc3[nH]nc(-c4cc(N5CCO[C@H](CN6CCN(CC7CCN(c8ccc9c(c8F)CN(C8CCC(=O)NC8=O)C9=O)CC7)CC6)C5)ncn4)c3c2)CC1 (stereo partly drawn) [Example 1, 3-[4-fluoro-5-[4-[[4-[[(2R)-4-[6-[5-(1-methylcyclopropoxy)-1H-indazol-3-yl]pyrimidin-4-yl]morpholin-2-yl]methyl]piperazin-1-yl]methyl]-1-piperidyl]-1-oxo-isoindolin-2-yl]piperidine-2,6-dione]
27 | 50 to 70 | CC1(Oc2ccc3[nH]nc(-c4cc(N5CCN(C[C@@H]6CCN(CC7CCN(c8ccc9c(c8F)CN(C8CCC(=O)NC8=O)C9=O)CC7)C[C@@H]6F)CC5)ncn4)c3c2)CC1 (some centres unmarked) [Example 9]
28 | 50 to 70 | CC1(Oc2ccc3[nH]nc(-c4cc(N5CCN(C[C@H]6CN(CC7CCN(c8ccc9c(c8F)CN(C8CCC(=O)NC8=O)C9=O)CC7)CCO6)CC5)ncn4)c3c2)CC1 (stereo partly drawn) [Example 12, 3-[4-fluoro-5-[4-[[(2S)-2-[[4-[6-[5-(1-methylcyclopropoxy)-1H-indazol-3-yl]pyrimidin-4-yl]piperazin-1-yl]methyl]morpholin-4-yl]methyl]-1-piperidyl]-1-oxo-isoindolin-2-yl]piperidine-2,6-dione]
29 | 50 to 70 | CC1(Oc2ccc3[nH]nc(-c4cc(N5CCN(CCC6(F)CCN(CC7CCN(c8ccc9c(c8F)CN(C8CCC(=O)NC8=O)C9=O)CC7)CC6)CC5)ncn4)c3c2)CC1 (centres unmarked) [Example 6, 3-[4-fluoro-5-[4-[[4-fluoro-4-[2-[4-[6-[5-(1-methylcyclopropoxy)-1H-indazol-3-yl]pyrimidin-4-yl]piperazin-1-yl]ethyl]-1-piperidyl]methyl]-1-piperidyl]-1-oxo-isoindolin-2-yl]piperidine-2,6-dione]
